Experimental findings from ChEMBL document CHEMBL5390278, “PPARα/γ-Targeting Amorfrutin Phytocannabinoids from Aerial Parts of Glycyrrhiza foetida” (J Nat Prod, 2023) are described below.

Data set [1] concerns the target T1, Peroxisome proliferator-activated receptor gamma (Homo sapiens) (UniProt P37231).
T1 sequence (whole entry): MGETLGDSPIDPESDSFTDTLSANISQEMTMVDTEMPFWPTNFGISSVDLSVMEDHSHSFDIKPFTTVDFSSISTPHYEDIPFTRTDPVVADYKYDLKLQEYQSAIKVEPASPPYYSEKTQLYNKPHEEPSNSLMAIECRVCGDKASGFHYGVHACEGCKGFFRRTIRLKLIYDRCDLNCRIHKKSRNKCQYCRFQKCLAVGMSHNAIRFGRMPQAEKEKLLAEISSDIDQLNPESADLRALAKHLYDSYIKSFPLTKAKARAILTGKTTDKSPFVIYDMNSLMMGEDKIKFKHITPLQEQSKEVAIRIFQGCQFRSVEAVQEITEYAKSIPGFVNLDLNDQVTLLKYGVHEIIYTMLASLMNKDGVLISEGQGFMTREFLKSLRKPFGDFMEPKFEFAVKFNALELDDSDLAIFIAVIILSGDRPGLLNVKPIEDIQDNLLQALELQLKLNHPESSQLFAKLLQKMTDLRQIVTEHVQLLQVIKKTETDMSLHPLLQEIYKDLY
Description: Agonist activity at human PPAR gamma transfected in African green monkey COS-7 cells co-transfected with CMX-Gal4 fused hPPARgamma/TK-MH100x4-Luc/renilla luciferase at 10 uM incubated for 24 hrs by Dual-Glo luciferase assay. It counts as cell-based. The note with it: filed as agonist.

Data set [2] addresses T2, Peroxisome proliferator-activated receptor alpha (Homo sapiens) (UniProt Q07869).
T2 sequence (whole entry): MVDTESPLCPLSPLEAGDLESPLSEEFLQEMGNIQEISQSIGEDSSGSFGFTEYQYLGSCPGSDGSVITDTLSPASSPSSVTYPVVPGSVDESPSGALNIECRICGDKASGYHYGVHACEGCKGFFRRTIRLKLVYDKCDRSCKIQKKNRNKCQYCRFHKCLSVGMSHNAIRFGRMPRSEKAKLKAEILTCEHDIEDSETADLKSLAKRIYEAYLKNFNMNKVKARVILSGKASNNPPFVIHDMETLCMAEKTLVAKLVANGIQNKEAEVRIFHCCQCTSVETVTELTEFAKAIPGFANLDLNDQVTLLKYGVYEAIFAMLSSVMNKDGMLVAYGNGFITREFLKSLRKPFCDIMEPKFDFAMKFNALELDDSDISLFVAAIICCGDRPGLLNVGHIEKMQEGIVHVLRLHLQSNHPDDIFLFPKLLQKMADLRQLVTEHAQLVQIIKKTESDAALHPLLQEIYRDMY
Description: Agonist activity at human PPAR alpha transfected in African green monkey COS-7 cells co-transfected with CMX-Gal4 fused hPPARalpha/TK-MH100x4-Luc/renilla luciferase assessed as fold increase in luciferase activity at 10 uM incubated for 24 hrs by Dual-Glo luciferase assay. It counts as cell-based. The conditions noted are these: filed as agonist.

The test system of another data set is COS-7. Description: Cytotoxicity against African green monkey COS-7 cells assessed as cell viability at 1 to 30 uM incubated for 24 hrs by MTT assay. It counts as toxicity, cell-based. The note with it: chlorocebus aethiops, cos-7, 24 h, dose 1-30 µM. In general terms: Tetrazolium dyes change colour on reduction, which living cells bring about.
Data set [3] has as its target T1, Peroxisome proliferator-activated receptor gamma (Homo sapiens). The experiment in a line: Agonist activity at human PPAR gamma transfected in African green monkey COS-7 cells co-transfected with CMX-Gal4 fused hPPARgamma/TK-MH100x4-Luc/renilla luciferase assessed as fold increase in luciferase activity at 10 uM incubated for 24 hrs by Dual-Glo luciferase assay. It counts as cell-based.

Active and inactive are the calls of the source. No cut-off for these calls is given here.

In the case of `C=C(C)C(O)Cc1c(OC)cc(CCc2ccccc2)c(C(=O)O)c1O` (racemic), the result in data set [1] was Active. The fold change (FC) in data set [2] worked out at 5.

In the case of `CCCCCc1cc(OC)c2c(c1C(=O)O)OC(C(C)(C)O)C2` (racemic), the fold change (FC) in data set [2] was 5.

On to `COc1cc(CCc2ccccc2)cc(O)c1CC=C(C)C`, for which the Activity result with COS-7 is on record as “Toxic”.

Consider `CCCCCc1cc(O)c(CC=C(C)C)c(O)c1CC=C(C)C`, for which, in data set [2], the fold change (FC) stood at 5.

Regarding `COc1cc(CCc2ccccc2)c(C(=O)O)c2c1[C@H](OC)[C@@H](C(C)(C)O)O2`, the Activity result in the data set on COS-7 is “Toxic”.

Take `COc1cc(CCc2ccccc2)c(C(=O)O)c2occc12`: the fold change (FC) in data set [2] came out at 5.

As to `COc1cc(/C=C/c2ccccc2)cc(OC)c1CC=C(C)C`, the Activity result in the data set with COS-7 was “Toxic”.

Consider `COc1cc(CCc2ccccc2)cc(OC)c1CC=C(C)C`, for which the Activity result in the data set with COS-7 is given as “Toxic”.

Consider `CC(C)=CCc1c(O)cc(CCc2ccccc2)c(CC=C(C)C)c1O`, for which the Activity result in the data set with COS-7 is given as “Toxic”.

As to `C=C(C)C(Cc1c(OC)cc(CCc2ccccc2)c(C(=O)O)c1O)OO` (racemic), the outcome in data set [1] was Active. The fold change (FC) in data set [2] came to 5.

Turning to `COc1cc(/C=C/c2ccccc2)cc(O)c1CC=C(C)C`, the Activity result in the data set on COS-7 was “Toxic”.

Regarding `COc1cc(C#Cc2ccccc2)cc(OC)c1CC=C(C)C`, in the data set on COS-7, the Activity result is “Toxic”.

In the case of `C=C(C)C(O)Cc1c(OC)cc(CCCCC)c(C(=O)O)c1O` (racemic), the outcome in data set [1] was Active. Moreover, in data set [2], the fold change (FC) was 5.

Turning to `CCCCCc1cc(OC)c(CC=C(C)C)c(O)c1C(=O)O`, the Activity entry in the data set with COS-7 is listed as “Toxic”.

With `CC(C)=CCc1c(O)cc(CCc2ccccc2)cc1O`, in the data set on COS-7, the Activity entry is reported as “Toxic”.

On to `COc1cc(CCc2ccccc2)c(C(=O)O)c(O)c1CC=C(C)C`, for which the result in data set [1] was Active. In addition, the fold change (FC) in data set [2] was 5; in data set [3], greater than 20.

Turning to `COc1c(CC=C(C)C)c(O)c(C(=O)O)c(CCc2ccccc2)c1CC=C(C)C`, the result in data set [1] was Active.
